We go through 18 compounds from patent US20090082395A1, “SOLUBLE EPOXIDE HYDROLASE INHIBITORS” (Arete Therapeutics, Inc., priority 2007, published 2009).

The test system of data set [1] is soluble epoxide hydrolase (sEH). The data set is described as follows: Fluorescent assay for mouse and human soluble epoxide hydrolase (CMNPC substrate). Format: biochemical. As to conditions: recombinant sEH, species (mouse or human) not given. The source says: Fluorescent Assay for Mouse and Human Soluble Epoxide Hydrolase
Recombinant mouse sEH (MsEH) and human sEH (HsEH) were produced in a baculovirus expression system as previously reported. Grant et al., J. Biol. Chem., 268:17628-17633 (1993); Beetham et al., Arch. Biochem. Biophys., 305:197-201 (1993). The expressed proteins were purified from cell lysate by affinity chromatography. Wixtrom et al., Anal. Biochem., 169:71-80 (1988). Protein concentration was quantified using the Pierce BCA assay using bovine serum albumin as the calibrating standard. The preparations were at least 97% pure as judged by SDS-PAGE and scanning densitometry. They contained no detectable esterase or glutathione transferase activity which can interfere with the assay. The assay was also evaluated with similar results in crude cell lysates or homogenate of tissues.
The IC50s for each inhibitor were according to the following procedure:
Cyano(2-methoxynaphthalen-6-yl)methyl (3-phenyloxiran-2-yl)methyl carbonate (CMNPC; Jones P. D. et. al.; Analytical Biochemistry 2005; 343: pp. 66-75)
Bis/Tris HCl 25 mM pH 7.0 containing 0.1 mg/mL of BSA (buffer A)
CMNPC at 0.25 mM in DMSO.
Mother solution of enzyme in buffer A (Mouse sEH at 6 μg/mL and Human sEH at 5 μg/mL). Inhibitor dissolved in DMSO at the appropriate concentration.
In a black 96 well plate, fill all the wells with 150 μL of buffer A. Add 2 μL of DMSO in well A2 and A3, and then add 2 μL of inhibitor solution in A1 and A4 through A12. Add 150 μL of buffer A in row A, then mix several time and transfer 150 μL to row B. Repeat this operation up to row H. The 150 μL removed from row H go to the trash. Add 20 μL of buffer A in column 1 and 2, then add 20 μL of enzyme solution to column 3 to 12. Incubate the plate for 5 minutes in the plate reader at 30° C. During incubation prepare the working solution of substrate by mixing 3.68 mL of buffer A (4×0.920 mL) with 266 μL (2×133 μL) of substrate solution). At t=0, add 30 μL of working substrate solution with multi-channel pipette labeled “Briggs 303” and start the reading ([S]final: 5 μM). Read with ex: 330 nm (20 nm) and em: 465 nm (20 nm) every 30 second for 10 minutes. The velocities are used to analyze and calculate the IC50s.

In general, melting point refers to the temperature, or range, at which the solid turns liquid. For `O=C(Nc1ccc(C(F)(F)F)cc1)Nc1ccc2ncccc2c1` [Compound 1, 1-(quinolin-6-yl)-3-(4-(trifluoromethyl)phenyl)urea], the melting point was in the range of 259 to 263 °C. The “% Inh” value in data set [1] (compound concentration 2000 nM) is listed as 98%.

On to `O=C(Nc1ccc2c(c1)OCCO2)NC12CC3CC(CC(C3)C1)C2` [Compound 2, 1-adamantan-1-yl-3-(2,3-dihydrobenzo[b][1,4]dioxin-6-yl)urea], for which the “% Inh” value in data set [1] (compound concentration 2000 nM) is on record as 98%.

Turning to `O=C(Nc1ccc(C(F)(F)F)cc1)Nc1ccc2c(c1)OC(F)(F)O2` [Compound 3, 1-(2,2-difluorobenzol[d][1,3]dioxol-5-yl)-3-(4-(trifluoromethyl)phenyl)urea], the melting point was 195 to 200 °C. Also, the “% Inh” value in data set [1] (compound concentration 50 nM) came out at 91%.

Compound `O=C(Nc1ccc(Cl)cc1)Nc1ccc2[nH]c(C(F)(F)F)nc2c1` [Compound 4, 1-(4-chlorophenyl)-3-(2-(trifluoromethyl)-1H-benzo[d]imidazol-5-yl)urea] returned a melting point of 264 to 268 °C. The “% Inh” value in data set [1] (compound concentration 500 nM) is 91%.

For the compound `O=C(Nc1cccc(C(F)(F)F)c1)Nc1ccc2c(c1)OC(F)(F)O2` [Compound 5, 1-(2,2-difluorobenzo[d][1,3]dioxol-5-yl)-3-(3-(trifluoromethyl)phenyl)urea], the “% Inh” value in data set [1] (compound concentration 500 nM) turned out to be 89%.

`Cc1cc2cc(NC(=O)Nc3ccc(Cl)cc3)ccc2[nH]1` [Compound 6, 1-(4-chlorophenyl)-3-(2-methyl-1H-indol-5-yl)urea] had a melting point of 257 to 260 °C. Moreover, the “% Inh” value in data set [1] (compound concentration 50 nM) stood at 89%.

Compound `O=C(Nc1ccc(Cl)cc1)Nc1ccc2c(c1)OC(F)(F)O2` [Compound 7, 1-(4-chlorophenyl)-3-(2,2-difluorobenzo[d][1,3]dioxol-5-yl)urea] registered a melting point of 231 to 233 °C. Moreover, the “% Inh” value in data set [1] (compound concentration 50 nM) was 95%.

`Cn1ncc2cc(NC(=O)Nc3ccc(C(F)(F)F)cc3)ccc21` [Compound 8, 1-(1-methyl-1H-indazol-5-yl)-3-(4-(trifluoromethyl)phenyl)urea] registered a melting point of 252 to 254 °C. The “% Inh” value in data set [1] (compound concentration 50 nM) is recorded as 92%.

In turn, `Cc1cc2cc(NC(=O)NC34CC5CC(CC(C5)C3)C4)ccc2[nH]1` [Compound 9, 1-adamantan-1-yl-3-(2-methyl-1H-indol-5-yl)urea] displayed a melting point of 146 to 152 °C. In addition, the “% Inh” value in data set [1] (compound concentration 50 nM) came to 85%.

`O=C(Nc1ccc2c(c1)OC(F)(F)O2)NC12CC3CC(CC(C3)C1)C2` [Compound 10, 1-adamantan-1-yl-3-(2,2-difluorobenzo[d][1,3]dioxol-5-yl)urea] had a melting point of 213 to 215 °C. For the same compound, the “% Inh” value in data set [1] (compound concentration 50 nM) turned out to be 99%.

Take `Cc1nc2cc(NC(=O)Nc3ccc(C(F)(F)F)cc3)ccc2o1` [Compound 11, 1-(2-methylbenzo[d]oxazol-5-yl)-3-(4-(trifluoromethyl)phenyl)urea]: the melting point fell in the range of 240 to 243 °C. Besides, the “% Inh” value in data set [1] (compound concentration 50 nM) worked out at 98%.

In turn, `Cc1nc2cc(NC(=O)Nc3cccc(C(F)(F)F)c3)ccc2o1` [Compound 12, 1-(2-methylbenzo[d]oxazol-5-yl)-3-(3-(trifluoromethyl)phenyl)urea] yielded a melting point of 184 to 186 °C. Moreover, in data set [1] (compound concentration 500 nM), the “% Inh” value is 93%.

`Cc1nc2cc(NC(=O)NC34CC5CC(CC(C5)C3)C4)ccc2s1` [Compound 13, 1-adamantan-1-yl-3-(2-methylbenzo[d]thiazol-5-yl)urea] yielded a melting point of 209 to 214 °C. Besides, the “% Inh” value in data set [1] (compound concentration 50 nM) is 92%.

Compound `O=C(Nc1ccc(C(F)(F)F)cc1)Nc1ccc2[nH]c(C(F)(F)F)nc2c1` [Compound 14, 1-(2-(trifluoromethyl)-1H-benzo[d]imidazol-5-yl)-3-(4-(trifluoromethyl)phenyl)urea] displayed a melting point of 223 to 228 °C. The “% Inh” value in data set [1] (compound concentration 50 nM) came out at 80%.

`O=C(Nc1ccc2[nH]c(C(F)(F)F)nc2c1)NC12CC3CC(CC(C3)C1)C2` [Compound 15, 1-adamantan-1-yl-3-(2-(trifluoromethyl)-1H-benzo[d]imidazol-5-yl)urea]: the melting point was 189 to 192 °C. Further, the “% Inh” value in data set [1] (compound concentration 500 nM) came out at 93%.

As to `O=C(Nc1cccc(C(F)(F)F)c1)Nc1ccc2nc(C(F)(F)F)[nH]c2c1` [Compound 16, 1-(2-(trifluoromethyl)-1H-benzo[d]imidazol-5-yl)-3-(3-(trifluoromethyl)phenyl)urea], the melting point was 213 to 215 °C. In addition, the “% Inh” value in data set [1] (compound concentration 500 nM) is given as 85%.

Compound `O=C(Nc1cccc(C(F)(F)F)c1)Nc1ccc2c(c1)COC2=O` [Compound 17, 1-(1-oxo-1,3-dihydroisobenzofuran-5-yl)-3-(3-(trifluoromethyl)phenyl)urea] showed a melting point of 279 to 282 °C. In addition, in data set [1] (compound concentration 50 nM), the “% Inh” value is recorded as 86%.

For the compound `O=C(Nc1ccc(C(F)(F)F)cc1)Nc1ccc2c(c1)COC2=O` [Compound 18, 1-(1-oxo-1,3-dihydroisobenzofuran-5-yl)-3-(4-(trifluoromethyl)phenyl)urea], in data set [1] (compound concentration 50 nM), the “% Inh” value stood at 87%.
